From PubChem BioAssay AID1902 (Broad Institute, 2009)
The source made the active and inactive calls.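 How the source made its calls: active means EC50 no more than a set limit of log units above the highest dose; inactive means the rest.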

Biological target: S. pyogenes SKKanGAS, kanamycin survival, BacTiterGlo, 6 h
Assay: S. pyogenes SKKanGAS kanamycin growth inhibitors – SKKanGAS strain, luminescence, dose confirmation, streptokinase promoter inhibitor project, dose response (AID 1902);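 further: lower survival reflects blocked streptokinase promoter driving kanamycin resistance gene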

SMILES | EC50
Cc1cc2occ(CC(=O)NC3=NCCS3)c2cc1C(C)C | 4.35 µM
Cn1cc(C(=O)c2ccc(Cl)cc2Cl)cc1C(=O)N/N=C(\N)COc1cccc(C(F)(F)F)c1 | 3.22 µM
CC1=NN(c2ccc([N+](=O)[O-])cc2)C(=O)/C1=C\N(C)C | 7.94 µM
COc1ccc2[nH]c3c(C)c4ccncc4c(C)c3c2c1 | 1.87 µM
FC(F)(F)c1ccc(C2[C@H]3CN(Cc4cccnc4)[C@H](c4ccccc4)C34CC2(c2cccnc2)C4)cc1 (some centres not stated) | 5.15 µM
C/C(=N\NC(=O)c1nnn(-c2nonc2N)c1CN(C)c1ccccc1)c1ccccc1O | 2.75 µM
Cc1cc(S(=O)(=O)NCCC2=CCCCC2)ccc1Br | 5.43 µM
Cc1cccc(C)c1OCC(=O)Nc1ccccc1N1CCCCC1 | 2.78 µM
CCCC(=O)Nc1ccc2c(c1)nc(CCNC(=O)c1ccccc1)n2C | > 15 µM (inactive)
COc1ccc(NC(=O)c2cc3cccc(OC)c3oc2=Nc2ccc(C(=O)O)cc2)cc1OC | 2.1 µM
CC(C)C(=O)NC(c1ccco1)c1ccc2cccnc2c1O (configuration not stated) | 2.44 µM
CCc1cc(-c2n[nH]c(C)c2Oc2ccc(C(C)C)cc2)c(O)cc1O | 1.85 µM
Cc1ccc(C(=O)N2CCCC(CCC(=O)NCc3ccccc3F)C2)cn1 (configuration not stated) | > 15 µM (inactive)
O=C1NC(=S)/C(=C\c2ccc(-c3ccccc3Cl)o2)S1 | 2.94 µM
Oc1ccccc1/C=N/NC(=S)NC1CC2C=CC1C2 (configuration not stated) | 5.69 µM
CCOC(=O)[C@@H]1[C@H]2COc3ccccc3[C@H]2N2C(=O)N(c3ccc(C(F)(F)F)cc3)C(=O)[C@]12C | 6.08 µM
Clc1ccc(N2COC3c4cccc5cccc(c45)C32)cc1 (configuration not stated) | 7.55 µM
Cc1[nH]n(-c2ccccc2)c(=O)c1N=Nc1ccccc1O | 0.582 µM
C=CCn1c(=O)c(C(=O)NCc2ccccc2)c(O)c2ccccc21 | 3.32 µM
COc1ccccc1N=Nc1ccc(O)c2ncccc12 | 0.665 µM
Cc1ccsc1C1C=C(c2cccc(Br)c2)Nc2ncnn21 (configuration not stated) | 14.2 µM
CC(C)C[C@H](NC(=O)c1nc[nH]c1C(=O)N[C@@H](CC(C)C)C(=O)OC(C)(C)C)C(=O)OCc1ccccc1 | 1.45 µM

SMILES | EC50
Oc1cccc2ccc(/C=C/c3cccs3)nc12 | 2.91 µM
Cc1cccc(-n2c(N)c(-c3nc4ccccc4n3C)c3nc4ccccc4nc32)c1 | 2.26 µM
Cc1ccccc1OCCCc1c(C)n[nH]c1C | 1.09 µM
CCCCNc1c(-c2ccc(OC)c(SC3CCCCC3)c2)nc2cnccn12 | 3.62 µM
CCOc1ccc(-c2nc3n(c(=O)c2C#N)CCCS3)cc1 | 7.33 µM
Cc1ccc(-c2csc(-c3c[nH]c4ccccc34)n2)c(C)c1 | 6.03 µM
CCc1cc(C(=O)N2CCCC(CCC(=O)NCc3cccc(OC)c3)C2)no1 (configuration not stated) | > 15 µM (inactive)
c1ccc(-c2oc3ncnc(NCCCn4ccnc4)c3c2-c2ccccc2)cc1 | 8.92 µM
OCCCCC#Cc1c(-c2ccsc2)sc2ccccc12 | 7.82 µM
CC(=O)Oc1ccc(-c2nc(-c3cccnc3)no2)cc1 | 4.93 µM
O=c1cc(CSc2ccc(Cl)cc2)nc(-c2ccccn2)[nH]1 | 0.371 µM
O=C(Nc1nnc(SCc2ccc(F)cc2)s1)c1ccc2c(c1)C(=O)N(c1ccccc1Cl)C2=O | 6.26 µM
COc1cccc(CNCC(O)(c2ccc(Cl)cc2)c2ccc(Cl)cc2)c1 | 3.7 µM
CC1=Nc2ccccc2/C1=C/c1sc(=N)n(-c2nccs2)c1O | 0.452 µM
O=[N+]([O-])c1ccc(Cl)cc1Sc1nc2ccccc2o1 | 1.67 µM
Cc1nn(C(C)C(=O)NC2C(=O)N3C(C(=O)O)=C(CSc4nnnn4C)CSC23)cc1Cl (configuration not stated) | < 0.06 µM
CCc1ccc(/C=N/n2c(C3CCCCC3)n[nH]c2=S)cc1 | 7.16 µM
COc1ccc(C2CC(O)(c3ccccc3)Oc3c(C)ccc(C)c32)cc1 (configuration not stated) | > 15 µM (inactive)
CC(C)C(=O)NC(c1ccccc1)c1cc([N+](=O)[O-])c2cccnc2c1O (configuration not stated) | 2.48 µM
Cc1cc(N/N=C/c2cccc(Cl)c2)nc(-n2nc(C)cc2C)n1 | 0.966 µM
COc1cc(Cl)cc(/C=C/c2ccc3cccc(O)c3n2)c1OC | 0.951 µM
O=[N+]([O-])/C=C/c1ccc2c(ccn2Cc2ccccc2)c1 | 3.04 µM

SMILES | EC50
O=C(Nc1nc2ccccc2n1Cc1ccccc1)c1ccco1 | 2.91 µM
O=C(Cc1cccs1)NNC(=S)NC(=O)c1ccccc1 | 3.29 µM
CN(C)[C@@H]1C(=O)C(C(N)=O)=C(O)[C@@]2(O)C(=O)C3=C(O)c4c(O)ccc(Cl)c4[C@@](C)(O)[C@H]3C[C@@H]12 | 0.065 µM
CSc1nc2nccc(-c3ccc(-c4ccccc4)cc3)n2n1 | 3.08 µM
O=C(NC(=S)Nc1ccc(Cl)cn1)C(c1ccccc1)c1ccccc1 | 3.43 µM
O=C(CN1c2ccccc2Sc2ccccc21)NNC(=O)Nc1ccc(Cl)c(Cl)c1 | 2.23 µM
CC(=O)c1c(C)[nH]c(C(=O)Nc2nc(-c3ccc(-c4ccccc4)cc3)cs2)c1C | 4.14 µM
CCCOC(=O)c1ccc(Oc2cn[nH]c2-c2ccc(O)cc2O)cc1 | 3.34 µM
COc1ccc(NC(=O)CSc2ccc3nnc(-c4ccccn4)n3n2)c(OC)c1 | > 15 µM (inactive)
CCOc1ccc(C(=O)NC(=S)N(Cc2ccccc2)Cc2ccccc2)cc1 | 1.39 µM
CCCCCn1c(N)c(-c2nc3ccccc3s2)c2c([N+](=O)[O-])nn(CC)c(=O)c21 | 8.16 µM
CCC(C)Sc1cccc(-c2nc3ccc(C)cn3c2NCc2ccccc2)c1 (configuration not stated) | 3.24 µM
O=C1C(NS(=O)(=O)c2cccs2)=C(N2CCN(c3cccc(C(F)(F)F)c3)CC2)C(=O)c2ccccc21 | 8.85 µM
O=c1c2ccccc2oc2cc(-c3ccc4[nH]ccc4c3)ccc12 | 4.85 µM
CCc1ccc(S(=O)(=O)/N=C2\C=C(Nc3ccc(C(=O)O)cc3)C(=O)c3ccccc32)cc1 | 0.444 µM
Cc1ccc(C)c(-c2nnc(NC(=O)COc3ccccc3)o2)c1 | 1.7 µM
N=C1S/C(=C\c2ccco2)C(=O)N1c1nccs1 | 2.13 µM
Cc1ccc2[nH]c(O)c(N=NC(=O)c3ccc(NS(=O)(=O)c4cccs4)cc3)c2c1 | 1.25 µM
Oc1c(CN2CCc3ccccc3C2)cc(Cl)c2cccnc12 | 2.15 µM
Cc1ccccc1NC(=O)NCCCCc1ccccc1 | > 15 µM (inactive)
COc1ccc(C(=O)/C=C/c2ccc(O)cc2)c(O)c1CC=C(C)C | 2.14 µM
O=C(O)c1ccccc1-c1ccccc1C(=O)Nc1ccc(-c2nc3cc(Cl)ccc3o2)cc1 | 5.3 µM

SMILES | EC50
CCOC(=O)c1csc(N/N=C2\CCCc3ccccc32)n1 | 11 µM
Oc1ccc(Cl)cc1-c1cc(-c2cccc(Br)c2)n[nH]1 | 3.62 µM
C/C(N)=C(/C#N)C(=O)COC(=O)c1cc(-c2ccc(Br)cc2)nc2ccccc12 | 9.97 µM
Cc1ccccc1NS(=O)(=O)c1ccc(C)c(C(=O)N2CCOCC2)c1 | > 15 µM (inactive)
c1ccc(Oc2nc(-c3ccccn3)nc3ccccc23)cc1 | 9.41 µM
COc1cc(-c2c(C#N)c(N)nc3c2c(C)nn3-c2ccc(C)c(C)c2)cc(OC)c1OC | 4.53 µM
Cc1ccc(C(=O)NNC(=S)NC(=O)c2ccco2)cc1 | 0.905 µM
NS(=O)(=O)c1ccc(N/N=C2/CCCCC2C2CCCCC2)c([N+](=O)[O-])c1 (configuration not stated) | 3.11 µM
O=c1cc(C(F)(F)F)[nH]c2c(C(F)(F)F)cccc12 | 2.34 µM
CC[C@@H]1CC=C[C@H]2[C@H]1C(=O)N(Cc1ccccc1)[C@H]2c1ccc(OC)c(Cl)c1 | 4.15 µM
Cc1ccc(CN(C(=O)c2ccco2)C2CCS(=O)(=O)C2)cc1 (configuration not stated) | > 15 µM (inactive)
O=C(CCc1ccccc1)NNC(=S)NC(=O)c1ccccc1 | 1.81 µM
O=C(NC(=S)N1CCN(c2nc(-c3ccccc3)cs2)CC1)c1cncc(Br)c1 | 1.2 µM
CC(C)(C)c1cc(C(=O)Nc2ccc(F)cc2)n(Cc2ccc(F)cc2)n1 | 3.77 µM
CN(Cc1ccc(OC(F)F)cc1)Cc1nc2c(Br)cc(Br)cc2c(=O)[nH]1 | 2.98 µM
O=C(Nc1nc2ccccc2n1CCOc1ccccc1)c1ccco1 | 6.87 µM
Oc1nc(Nc2ccc(F)cc2)sc1/C=C1\C=Nc2ccccc21 | 8.88 µM
COc1cccc(/C=N/Nc2nc(Nc3ccc([N+](=O)[O-])cc3)nc(N3CCCC3)n2)c1O | 1.18 µM
Cc1cc(SCC(=O)N/N=C/c2ccc(O)c(O)c2O)c(C)cc1Br | 3.11 µM
C[C@H]1CC[C@@]2(C)[C@@H](CC[C@@H]3[C@@H]2CC[C@]2(C)[C@@H](O)CC[C@@H]32)C1 | 0.856 µM
CC(C)c1ccc(-n2c(O)c(/C=N/NC(=O)c3ccccc3O)c(=O)[nH]c2=S)cc1 | 7 µM
O=C1c2[nH]nc(-c3ccccc3O)c2C(c2cccc(Cl)c2)N1Cc1ccco1 (configuration not stated) | 7.4 µM

SMILES | EC50
COc1ccc2nc(-n3c(O)c(C4=c5ccccc5=NC4=O)[nH]c3=S)sc2c1 | 0.508 µM
CCOC(=O)c1sc2nc3c(SCC(=O)O)cc(C(=O)c4cc(F)ccc4O)cn3c(=O)c2c1C | 2.11 µM
Cc1cc(SCC(=O)N/N=C/c2ccc(O)cc2O)c(C)cc1Br | 1.93 µM
CCOc1ccc(NS(=O)(=O)c2cc(NC(=O)c3ccc(C)cc3)ccc2Cl)cc1 | 3.72 µM
Nc1nc(Nc2ccc(Cl)cc2)nc(NCc2ccco2)c1[N+](=O)[O-] | 6.56 µM
CCc1ccc(/C=C2\SC(=S)N(CCCC(=O)Nc3ccc(C(=O)O)cc3)C2=O)cc1 | 7.83 µM
CCOC(=O)c1ccc(NC(=O)c2sc3nc4n(c(=O)c3c2C)CCC4)cc1 | 1.99 µM
Cc1c(C(=O)NNC(=O)c2ccccc2O)oc2ccc(Br)cc12 | > 15 µM (inactive)
CN(C)/C=C1\SC(=S)N(c2ccc(Br)cc2)C1=O | 5.37 µM
O=C1N/C(=N\N=C\c2cccs2)SC1Cc1ccc(Cl)c(Cl)c1 (configuration not stated) | 11.4 µM
O=C(CP(=O)(c1ccccc1)c1ccccc1)N/N=C/c1cc(Br)cc(Br)c1O | 0.804 µM
Cc1ccc(Cn2nnc3c(=O)[nH]c(C4CCN(S(=O)(=O)c5cc(C)ccc5C)CC4)nc32)cc1 | 6.26 µM
O=[N+]([O-])c1cc(C(F)(F)F)cc([N+](=O)[O-])c1NCCNC(=S)Nc1ccc(Cl)c(Cl)c1 | 1.12 µM
O=C(NNc1nc(-c2ccc(F)cc2)cs1)c1ccccc1 | 2.17 µM
CCC(=O)N1N=C(c2c(O)n(C)c(=O)n(C)c2=O)CC1c1ccccc1 (configuration not stated) | 2.42 µM
CCCC(=O)NC(c1ccc(Cl)cc1Cl)c1ccc2cccnc2c1O (configuration not stated) | 0.912 µM
Oc1cccc2ccc(/C=C/c3ccc(Br)s3)nc12 | 1.38 µM
Cc1[nH]n(-c2ccc(Cl)cc2)c(=O)c1/C=N/n1c(C)nc2ccccc2c1=O | 1.44 µM
Cc1oc(C(C)(C)C)cc1C(=O)N1CCN(C(c2ccccc2)c2ccccc2)CC1 | 2.89 µM
